From patent publication US11345659B2, “Pipecolic esters for inhibition of the proteasome” (THE BOARD OF REGENTS OF THE UNIVERSY OF TEXAS SYSTEM, priority 2018, dated 2022)

Target: T1, latent core 20 S proteasome (Homo sapiens, UniProt P25787+P25789)
T1 construct: purified from erythrocytes; purchased Enzo Life Sciences, Inc. (Farmingdale, N.Y.); host or cells: human erythrocytes
Assay: ChT-L peptidase activity of latent 20 S core
Assay type: biochemical
Conditions: no tRpt5 activation
Protocol: Human housekeeping 20 S and 26 S and complexes purified from erythrocytes were purchased from Enzo Life Sciences, Inc. (Farmingdale, N.Y.). The 1 mg/ml stock 20 S proteasome was diluted to 0.2 mg/ml working solution in 50 mM Tris/HCl, pH 8 containing 20% glycerol (dilution buffer). For the 26 S proteasome stock, the dilution buffer was supplemented with 2 mM ATP, 1 mM MgCl2, and 1 mM DTT (dithiothreitol). The ChT-L peptidase activity was measured as arbitrary intensity units of fluorescence emitted by 7-amino-4-methylcoumarin (AMC) released from the canonical model peptide substrate succinyl-LeuLeuValTyr-methylcoumarin (SucLLVY-MCA; Bachem Bioscience Inc., Philadelphia, Pa.), used at concentration of 100 μM. Free AMC (Sigma-Aldrich, St. Louis, Mo.) was used as the standard. The Rpt5 C-terminal peptide was synthesized (standard solid-phase peptide chemistry) and purified to at least 98% purity by GenScript (Piscataway, N.J.). […]
The reaction was carried out in 96-well plates, in 100 μL of reaction mixture, for 1 hour at 37° C. […] The reaction rates were calculated from a linear segment of kinetic curves constructed from measurements in 1-minutes intervals (Fluoroskan Ascent plate reader; Thermo Fisher Scientific Inc., Waltham, Mass.). Reaction rates were calculated using a linear fit executed by Slope Analyzer and Enzyme Kinetics applications launched within Origin Pro 2017 (OriginLab). […]

COc1cc(CCCOC(=O)[C@@H]2CCCCN2C(=O)OCc2ccccc2)cc(OC)c1OC [Compound 3, 1-benzyl 2-(3-(3,4,5-trimethoxyphenyl)propyl) (S)-piperidine-1,2-dicarboxylate]
IC50: 2.8 µM
